# Experimental data: patent US20250195536A1, “BICYCLOOCTANE KRAS INHIBITORS” (Incyte Corporation, priority 2023, published 2025)
# Experiments:
# [1] = biological target: KRAS G12D (Homo sapiens, UniProt P01116, G12D); test: GDP-GTP exchange assay (KRAS G12D); type: biochemical; details: bodipy-GDP/GppNHp exchange with SOS1; 4 h pre-incubation, 2 h reaction;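 also: one dagger IC50 up to 100 nM and two daggers above 100 nM up to 1 μM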
# In short: (§1)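 IC50 came from a four-parameter fit of fluorescence loss (485/520 nm) as SOS1 (150 nM) swapped bodipy-GDP for GppNHp (500 μM) on 2.5 nM KRAS, final concentrations. Compounds were pre-incubated 4 h at r.t. (pH 7.5 Hepes, 10 mM MgCl2); exchange ran 2 h (G12D) or 3 h (G12V).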
# [2] = Caco2 assay (permeability, Papp A-B); type: in vitro ADME; details: human, Caco-2, absorptive direction (A-B), 50 μM test compound, 4% BSA in receiver
# In short: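 Absorptive (A-B) Papp: 50 μM test compound in HBSS added to apical side of 22-25-day Caco-2 monolayers (TEER 300 Ω·cm^2), receiver buffer containing 4% BSA. After 120 min at 37 °C, 5% CO2, both sides analysed by LCMS; Papp calculated from flux rate normalized to area and donor amount.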
# [3] = biological target: KRAS G12V (Homo sapiens, UniProt P01116, G12V); test: GDP-GTP exchange assay (KRAS G12V); type: biochemical; details: bodipy-GDP/GppNHp exchange with SOS1; 3 h incubation after GppNHp-SOS1;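 also: one dagger IC50 up to 100 nM and two daggers above 100 nM up to 1 μM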
# In short: as §1
# Sequence of KRAS G12D (P01116 1-188 isoform P01116-2 G12D): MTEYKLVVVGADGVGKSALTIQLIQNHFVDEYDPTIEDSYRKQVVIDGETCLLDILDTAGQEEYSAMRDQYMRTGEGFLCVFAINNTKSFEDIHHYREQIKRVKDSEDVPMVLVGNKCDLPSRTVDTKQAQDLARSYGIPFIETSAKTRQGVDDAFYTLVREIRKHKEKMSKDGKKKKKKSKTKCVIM
# Sequence of KRAS G12V (P01116 1-188 isoform P01116-2 G12V): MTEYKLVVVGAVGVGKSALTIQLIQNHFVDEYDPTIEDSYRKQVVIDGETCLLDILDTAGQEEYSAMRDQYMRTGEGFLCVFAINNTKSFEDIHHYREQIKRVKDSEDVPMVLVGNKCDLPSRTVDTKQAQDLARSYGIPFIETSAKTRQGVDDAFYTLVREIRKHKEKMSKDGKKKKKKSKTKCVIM
SMILES,G12D_exchange (KRAS_G12D exchange assay IC50) [1],"Papp A→B at 120 min, 50 μM [2] [×10⁻⁶ cm/s]",G12V_exchange (KRAS_G12V exchange assay IC50) [3]
"Cc1nc2c(F)c(-c3cccc(Cl)c3Cl)c(CCC#N)cc2c2c1cc([C@H]1[C@H]3C[C@H](CN(c4ccn5cc(C(F)(F)F)nc5c4)C3)N1C(=O)C1CC1)n2[C@H]1[C@H]2CN[C@@H]1C2 (atropisomer, axis not shown; (Ra)) [Example 70, 3-((Ra)-1-((1R,4R,5S)-2-azabicyclo[2.1.1]hexan-5-yl)-2-((1S,5R,7R)-6-(cyclopropanecarbonyl)-3-(2-(trifluoromethyl)imidazo[1,2-a]pyridin-7-yl)-3,6-diazabicyclo[3.2.1]octan-7-yl)-7-(2,3-dichlorophenyl)-6-fluoro-4-methyl-1H-pyrrolo[3,2-c]quinolin-8-yl)propanenitrile]",†,≤ 0.5,†
"Cc1nc(N2C[C@@H]3C[C@H](C2)N(C(=O)C2CC2)[C@H]3c2cc3c(C)nc4c(F)c(-c5cccc(Cl)c5Cl)c(CCC#N)cc4c3n2[C@H]2[C@H]3CN[C@@H]2C3)sc1C (atropisomer, axis not shown; (Ra)) [Example 95, 3-((Ra)-1-((1R,4R,5S)-2-azabicyclo[2.1.1]hexan-5-yl)-2-((1S,5R,7R)-6-(cyclopropanecarbonyl)-3-(4,5-dimethylthiazol-2-yl)-3,6-diazabicyclo[3.2.1]octan-7-yl)-7-(2,3-dichlorophenyl)-6-fluoro-4-methyl-1H-pyrrolo[3,2-c]quinolin-8-yl)propanenitrile]",†,≤ 0.5,†
"Cc1nc2c(F)c(-c3cccc(Cl)c3Cl)c(CCC#N)cc2c2c1cc([C@H]1[C@H]3C[C@H](CN(c4nccc(C(F)(F)F)c4F)C3)N1C(=O)C1CC1)n2[C@H]1[C@H]2CN[C@@H]1C2 (atropisomer, axis not shown; (Ra)) [Example 50, 3-((Ra)-1-((1R,4R,5S)-2-azabicyclo[2.1.1]hexan-5-yl)-2-((1S,5R,7R)-6-(cyclopropanecarbonyl)-3-(3-fluoro-4-(trifluoromethyl)pyridin-2-yl)-3,6-diazabicyclo[3.2.1]octan-7-yl)-7-(2,3-dichlorophenyl)-6-fluoro-4-methyl-1H-pyrrolo[3,2-c]quinolin-8-yl)propanenitrile]",††,≤ 0.5,†
"Cc1nc2c(F)c(-c3cccc(Cl)c3Cl)c(CCC#N)cc2c2c1cc([C@H]1[C@H]3C[C@H](CN(c4nc(C#N)cs4)C3)N1C(=O)C1CC1)n2[C@H]1[C@H]2CN[C@@H]1C2 (atropisomer, axis not shown; (Ra)) [Example 96, 2-((1S,5R,7R)-7-((Ra)-1-((1R,4R,5S)-2-azabicyclo[2.1.1]hexan-5-yl)-8-(2-cyanoethyl)-7-(2,3-dichlorophenyl)-6-fluoro-4-methyl-1H-pyrrolo[3,2-c]quinolin-2-yl)-6-(cyclopropanecarbonyl)-3,6-diazabicyclo[3.2.1]octan-3-yl)thiazole-4-carbonitrile]",†,≤ 0.5,†
"Cc1nc2c(F)c(-c3cccc(Cl)c3Cl)c(CCC#N)cc2c2c1cc([C@H]1[C@H]3C[C@H](CN(c4ccccn4)C3)N1C(=O)C1CC1)n2[C@H]1[C@H]2CN[C@@H]1C2 (atropisomer, axis not shown; (Ra)) [Example 36, 3-((Ra)-1-((1R,4R,5S)-2-azabicyclo[2.1.1]hexan-5-yl)-2-((1S,5R,7R)-6-(cyclopropanecarbonyl)-3-(pyridin-2-yl)-3,6-diazabicyclo[3.2.1]octan-7-yl)-7-(2,3-dichlorophenyl)-6-fluoro-4-methyl-1H-pyrrolo[3,2-c]quinolin-8-yl)propanenitrile]",†,≤ 0.5,†
"Cc1nc2c(F)c(-c3cccc(Cl)c3Cl)c(CCC#N)cc2c2c1cc([C@H]1[C@H]3C[C@H](CN(c4ccc(C(F)(F)F)cn4)C3)N1C(=O)C1CC1)n2[C@H]1[C@H]2CN[C@@H]1C2 [Example 30, 3-((Ra)-1-((1R,4R,5S)-2-Azabicyclo[2.1.1]hexan-5-yl)-2-((1 S,5R,7R)-6-(cyclopropanecarbonyl)-3-(5-(trifluoromethyl)pyridin-2-yl)-3,6-diazabicyclo[3.2.1]octan-7-yl)-7-(2,3-dichlorophenyl)-6-fluoro-4-methyl-1H-pyrrolo[3,2-c]quinolin-8-yl)propanenitrile]",†,≤ 0.5,†
"Cc1nc2c(F)c(-c3cccc(Cl)c3Cl)c(CCC#N)cc2c2c1cc([C@H]1[C@H]3C[C@H](CN(c4ccc(OC(F)(F)F)cc4)C3)N1C(=O)C1CC1)n2[C@H]1[C@H]2CN[C@@H]1C2 (atropisomer, axis not shown; (Ra)) [Example 3, 3-((Ra)-1-((1R,4R,5S)-2-azabicyclo[2.1.1]hexan-5-yl)-2-((1S,5R,7R)-6-(cyclopropanecarbonyl)-3-(4-(trifluoromethoxy)phenyl)-3,6-diazabicyclo[3.2.1]octan-7-yl)-7-(2,3-dichlorophenyl)-6-fluoro-4-methyl-1H-pyrrolo[3,2-c]quinolin-8-yl)propanenitrile]",††,≤ 0.5,†
"Cc1sc(N2C[C@@H]3C[C@H](C2)N(C(=O)C2CC2)[C@H]3c2cc3c(C)nc4c(F)c(-c5cccc(Cl)c5Cl)c(CCC#N)cc4c3n2[C@H]2[C@H]3CN[C@@H]2C3)nc1C#N (atropisomer, axis not shown; (Ra)) [Example 97, 2-((1S,5R,7R)-7-((Ra)-1-((1R,4R,5S)-2-azabicyclo[2.1.1]hexan-5-yl)-8-(2-cyanoethyl)-7-(2,3-dichlorophenyl)-6-fluoro-4-methyl-1H-pyrrolo[3,2-c]quinolin-2-yl)-6-(cyclopropanecarbonyl)-3,6-diazabicyclo[3.2.1]octan-3-yl)-5-methylthiazole-4-carbonitrile]",†,≤ 0.5,†
"COC(=O)N1[C@@H]2C[C@@H](CN(c3cc(C(C)(F)F)ncn3)C2)[C@@H]1c1cc2c(C)nc3c(F)c(-c4cccc(Cl)c4Cl)c(CCC#N)cc3c2n1[C@H]1[C@H]2CN[C@@H]1C2 (atropisomer, axis not shown; (Ra)) [Example 124, Methyl (1 S,5R,7R)-7-((Ra)-1-((1R,4R,5S)-2-azabicyclo[2.1.1]hexan-5-yl)-8-(2-cyanoethyl)-7-(2,3-dichlorophenyl)-6-fluoro-4-methyl-1H-pyrrolo[3,2-c]quinolin-2-yl)-3-(6-(1,1-difluoroethyl)pyrimidin-4-yl)-3,6-diazabicyclo[3.2.1]octane-6-carboxylate]",†,≤ 0.5,†
"Cc1nc2c(F)c(-c3cccc(Cl)c3Cl)c(CCC#N)cc2c2c1cc([C@H]1[C@H]3C[C@H](CN(c4ccnc(C(C)(C)O)c4)C3)N1C(=O)C1CC1)n2[C@H]1[C@H]2CN[C@@H]1C2 (atropisomer, axis not shown; (Ra)) [Example 62, 3-((Ra)-1-((1R,4R,5S)-2-azabicyclo[2.1.1]hexan-5-yl)-2-((1S,5R,7R)-6-(cyclopropanecarbonyl)-3-(2-(2-hydroxypropan-2-yl)pyridin-4-yl)-3,6-diazabicyclo[3.2.1]octan-7-yl)-7-(2,3-dichlorophenyl)-6-fluoro-4-methyl-1H-pyrrolo[3,2-c]quinolin-8-yl)propanenitrile]",†,≤ 0.5,†
"Cc1nc2c(F)c(-c3cccc(Cl)c3Cl)c(CCC#N)cc2c2c1cc([C@H]1[C@H]3C[C@H](CN(c4ncc(C(C)C)s4)C3)N1C(=O)C1CC1)n2[C@H]1[C@H]2CN[C@@H]1C2 (atropisomer, axis not shown; (Ra)) [Example 32, 3-((Ra)-1-((1R,4R,5S)-2-Azabicyclo[2.1.1]hexan-5-yl)-2-((1 S,5R,7R)-6-(cyclopropanecarbonyl)-3-(5-isopropylthiazol-2-yl)-3,6-diazabicyclo[3.2.1]octan-7-yl)-7-(2,3-dichlorophenyl)-6-fluoro-4-methyl-1H-pyrrolo[3,2-c]quinolin-8-yl)propanenitrile]",†,> 1,†
"Cc1nc2c(F)c(-c3cccc(Cl)c3Cl)c(CCC#N)cc2c2c1cc([C@H]1[C@H]3C[C@H](CN(c4ccc(Cl)c(Cl)c4)C3)N1C(=O)C1CC1)n2[C@H]1[C@H]2CN[C@@H]1C2 (atropisomer, axis not shown; (Ra)) [Example 15, 3-((Ra)-1-((1R,4R,5S)-2-azabicyclo[2.1.1]hexan-5-yl)-2-((1S,5R,7R)-6-(cyclopropanecarbonyl)-3-(3,4-dichlorophenyl)-3,6-diazabicyclo[3.2.1]octan-7-yl)-7-(2,3-dichlorophenyl)-6-fluoro-4-methyl-1H-pyrrolo[3,2-c]quinolin-8-yl)propanenitrile]",†††,≤ 0.5,††††
